Converted amounts (≈) assume the structure as drawn. The source made the active and inactive calls. The rule behind the calls is not given here. Where only a bound is given, the exact number is not on record here.

The source of these data is ChEMBL document CHEMBL2034954, “Synthesis and antimycobacterial activity of novel 1,3-dimethylisocyanurate derivatives” (Eur J Med Chem, 2012).

Assay [1] has as its system Mycobacterium tuberculosis. The assay is described as follows: Antitubercular activity against Mycobacterium tuberculosis H37Rv after […] by radiometric growth assay. Type of assay: functional.
The subject of assay [2] is Mycobacterium tuberculosis. Nature of the assay: Bacteriostatic activity against Mycobacterium tuberculosis H37Rv at 25 ug/mL assessed as growth index after 3 days by radiometric growth assay (reference value: 210 growth index). Type of assay: functional.
The subject of assay [3] is Mycobacterium tuberculosis. Nature of the assay: Bacteriostatic activity against Mycobacterium tuberculosis H37Rv at 1 ug/mL assessed as growth index after 3 days by radiometric growth assay (reference value: 210 growth index). The format is functional.
Assay [4] concerns Mycobacterium tuberculosis. The assay is described as follows: Bacteriostatic activity against Mycobacterium tuberculosis H37Rv at 1 ug/mL assessed as growth index after 4 days by radiometric growth assay (reference value: 210 growth index). Type of assay: functional.
Assay [5] concerns Mycobacterium tuberculosis. The assay is described as follows: Bacteriostatic activity against Mycobacterium tuberculosis H37Rv at 1 ug/mL assessed as growth index after 5 days by radiometric growth assay (reference value: 210 growth index). Type of assay: functional.
The test system of assay [6] is Mycobacterium tuberculosis. Nature of the assay: Bacteriostatic activity against Mycobacterium tuberculosis H37Rv at 1 ug/mL assessed as growth index after 7 days by radiometric growth assay (reference value: 210 growth index). Type of assay: functional.
For assay [7], the system named is Mycobacterium tuberculosis. The assay is described as follows: Bacteriostatic activity against Mycobacterium tuberculosis H37Rv at 1 ug/mL assessed as growth index after 10 days by radiometric growth assay (reference value: 210 growth index). Type of assay: functional.
The test system of assay [8] is Mycobacterium tuberculosis. Nature of the assay: Bacteriostatic activity against Mycobacterium tuberculosis H37Rv at 0.5 ug/mL assessed as growth index after 3 days by radiometric growth assay (reference value: 210 growth index). The format is functional.
Assay [9] concerns Mycobacterium tuberculosis. Nature of the assay: Bacteriostatic activity against Mycobacterium tuberculosis H37Rv at 0.5 ug/mL assessed as growth index after 4 days by radiometric growth assay (reference value: 210 growth index). Type of assay: functional.
Assay [10] concerns Mycobacterium tuberculosis. Nature of the assay: Bacteriostatic activity against Mycobacterium tuberculosis H37Rv at 0.5 ug/mL assessed as growth index after 5 days by radiometric growth assay (reference value: 210 growth index). The format is functional.
Assay [11] concerns Mycobacterium tuberculosis. The assay is described as follows: Bacteriostatic activity against Mycobacterium tuberculosis H37Rv at 0.5 ug/mL assessed as growth index after 7 days by radiometric growth assay (reference value: 210 growth index). Type of assay: functional.
Assay [12] has as its system Mycobacterium tuberculosis. The assay is described as follows: Bacteriostatic activity against Mycobacterium tuberculosis H37Rv at 0.5 ug/mL assessed as growth index after 10 days by radiometric growth assay (reference value: 210 growth index). The format is functional.
Assay [13] deals with Mycobacterium tuberculosis. The assay is described as follows: Bacteriostatic activity against Mycobacterium tuberculosis H37Rv at 0.1 ug/mL assessed as growth index after 3 days by radiometric growth assay (reference value: 210 growth index). The format is functional.
Assay [14] concerns Mycobacterium tuberculosis. Nature of the assay: Bacteriostatic activity against Mycobacterium tuberculosis H37Rv at 0.1 ug/mL assessed as growth index after 4 days by radiometric growth assay (reference value: 210 growth index). The format is functional.
Assay [15] relates to Mycobacterium tuberculosis. The assay is described as follows: Bacteriostatic activity against Mycobacterium tuberculosis H37Rv at 0.1 ug/mL assessed as growth index after 5 days by radiometric growth assay (reference value: 210 growth index). The format is functional.
In assay [16] the test system is Mycobacterium tuberculosis. Nature of the assay: Bacteriostatic activity against Mycobacterium tuberculosis H37Rv at 0.1 ug/mL assessed as growth index after 7 days by radiometric growth assay (reference value: 210 growth index). Type of assay: functional.
The test system of assay [17] is Mycobacterium tuberculosis. The assay is described as follows: Bacteriostatic activity against Mycobacterium tuberculosis H37Rv at 0.1 ug/mL assessed as growth index after 10 days by radiometric growth assay (reference value: 210 growth index). The format is functional.
In assay [18] the test system is Mycobacterium tuberculosis. The assay is described as follows: Antitubercular activity against Mycobacterium tuberculosis H37Rv at 10 ug/mL by radiometric growth assay. The format is functional, organism-based.
The subject of assay [19] is Mycobacterium tuberculosis. The assay is described as follows: Antitubercular activity against Mycobacterium tuberculosis H37Rv at 1 ug/mL by radiometric growth assay. The format is functional, organism-based.

In turn, `Cn1c(=O)n(C)c(=O)n(CC[S+]([O-])CC(N)=O)c1=O` (stereo not drawn) came in with an MIC in assay [1] of 10 µg/mL (≈ 34.4 µM). For the same compound, the Growth_index in assay [2] is above 90.
Compound `Cn1c(=O)n(C)c(=O)n(CCS(=O)(=O)CC(=O)NN)c1=O` yielded an MIC in assay [1] of 0.5 µg/mL (≈ 1.56 µM). For the same compound, the Growth_index is given as 18 in [3]; 24 in assay [4]; 33 in [5]; 33 in assay [6]; 33 in assay [7]; 25 in assay [8]. For the same compound, the Growth_index in [9] is 40; in assay [10], 40; in [11], 40; in assay [12], 53.
`Cn1c(=O)n(C)c(=O)n(CC[S+]([O-])CC(=O)NN)c1=O` (stereo not drawn) had an MIC in [1] of 0.5 µg/mL (≈ 1.64 µM). The Growth_index was 10 in assay [3]; 22 in [4]; 40 in assay [5]; 50 in assay [6]; 50 in assay [7]; 30 in assay [8]. Moreover, in [9], the Growth_index is reported as above 90.
With `Cn1c(=O)n(C)c(=O)n(CCCCS(=O)(=O)CC(=O)NN)c1=O`, inhibition of growth in assay [1] (MIC) required 1 µg/mL (≈ 2.86 µM). In addition, the Growth_index in [3] is on record as 18; in [4], 34; in [5] it was 73; in assay [6] it was 73; in assay [7], above 90.
Regarding `Cn1c(=O)n(C)c(=O)n(CCCCC[S+]([O-])CC(N)=O)c1=O` (stereo not drawn), in [1], the MIC is 0.1 µg/mL (≈ 0.301 µM). The Growth_index in assay [3] is 12; in [4], 30; in assay [5], 30; in assay [6] it was above 90; in [8], 26; in assay [9], 37. The Growth_index is on record as 38 in assay [10]; 50 in assay [11]; 60 in assay [12]; 23 in assay [13]; 27 in assay [14]; 30 in [15]. In assay [16], the Growth_index was above 90.
In turn, `Cn1c(=O)n(C)c(=O)n(CS(=O)(=O)CC(N)=O)c1=O` displayed an MIC in assay [1] of 1 µg/mL (≈ 3.42 µM).
In assay [1], `Cn1c(=O)n(C)c(=O)n(CCCCCCS(=O)(=O)CC(N)=O)c1=O` had an MIC of 1 µg/mL (≈ 2.76 µM). The Growth_index in assay [3] is 5; in assay [4], 23; in assay [5] it was 53; in [6], above 90.
In assay [1], `Cn1c(=O)n(C)c(=O)n(CCS(=O)(=O)CC(N)=O)c1=O` gave an MIC of 25 µg/mL (≈ 81.6 µM). Moreover, in assay [2], the Growth_index is given as above 90.
In assay [1], `Cn1c(=O)n(C)c(=O)n(CS(=O)(=O)CC(=O)NN)c1=O` displayed an MIC of 0.1 µg/mL (≈ 0.325 µM). Further, the Growth_index in assay [3] was determined as 20; in assay [4], 20; in assay [6], 20; in [7], 20; in assay [8] it was 25; in assay [9], 41. Besides, the Growth_index is reported as 52 in [10]; 52 in assay [11]; 52 in [12]; 35 in assay [13]; 43 in assay [14]; 47 in [15]. For the same compound, the Growth_index in assay [16] and in [17] was 47 each time.
In turn, `Cn1c(=O)n(C)c(=O)n(CCCCCC[S+]([O-])CC(=O)NN)c1=O` (stereo not drawn) yielded an MIC in assay [1] of 0.5 µg/mL (≈ 1.38 µM). The Growth_index is 10 in assay [3], 15 in assay [4], 15 in assay [5] and above 90 in assay [6].
As to `CC1COc2c(N3CCN(C)CC3)c(F)cc3c(=O)c(C(=O)O)cn1c23` (stereo not drawn), in assay [18], the outcome was Active.
`Cn1c(=O)n(C)c(=O)n(CCCCCCS(=O)(=O)CC(=O)NN)c1=O`: the MIC in assay [1] turned out to be 0.1 µg/mL (≈ 0.265 µM). Besides, the Growth_index in assay [13] is listed as 15; in assay [14] it was 27; in [15] it was 31; in [16], above 90.
In assay [1], `Cn1c(=O)n(C)c(=O)n(CCCCCCCCCC[S+]([O-])CC(=O)NN)c1=O` (stereo not drawn) displayed an MIC of 0.5 µg/mL (≈ 1.2 µM). The Growth_index in assay [3] is reported as 0; in [4], 20; in [5], 22; in [6], 22; in [7], 22.
Compound `Cn1c(=O)n(C)c(=O)n(CCCCCS(=O)(=O)CC(N)=O)c1=O` had an MIC in assay [1] of 1 µg/mL (≈ 2.87 µM). In addition, the Growth_index in assay [3] came to 15; in [4] it was 20; in assay [5], 23; in assay [6], 23; in [7], 23.
Compound `Cn1c(=O)n(C)c(=O)n(CCCS(=O)(=O)CC(=O)NN)c1=O` came in with an MIC in assay [1] of 1 µg/mL (≈ 2.98 µM). Also, the Growth_index in assay [3] amounted to 5; in assay [4] it was 18; in assay [5], 55; in assay [6] it was 55; in assay [7], 55; in [8] it was 15. The values for the Growth_index in assay [9] and in [10] were 30 and above 90, respectively.
For the compound `Cn1c(=O)n(C)c(=O)n(CCCCS(=O)(=O)CC(N)=O)c1=O`, the MIC in assay [1] was 1 µg/mL (≈ 2.99 µM). Besides, the Growth_index in assay [3] was found to be 20; in assay [4], 35; in assay [5], 54; in assay [6] it was 54; in [7], 54.
Regarding `Cn1c(=O)n(C)c(=O)n(C[S+]([O-])CC(N)=O)c1=O` (stereo not drawn), the MIC in assay [1] worked out at 0.1 µg/mL (≈ 0.362 µM). Also, the Growth_index in [8] is given as 32; in [9] it was 50; in assay [10], 50; in assay [11], 50; in [12] it was 50; in assay [13], 30. Further, the figures for the Growth_index in assay [14], in assay [15] and in assay [16] were 30, 36 and above 90, respectively.
In assay [1], `C=CCn1c(=O)n(CC=C)c(=O)n(CC(O)CS(=O)(=O)CC(=O)NN)c1=O` (stereo not drawn) had an MIC of 0.1 µg/mL (≈ 0.248 µM).
`NNC(=O)c1ccncc1` [ISONIAZID]: inhibition of growth in assay [1] (MIC) required 0.1 µg/mL (≈ 0.729 µM). In addition, the outcome in assay [19] and in [18] was Active.
`Cn1c(=O)n(C)c(=O)n(CC(O)CS(=O)(=O)CC(=O)NN)c1=O` (stereo not drawn): in assay [1], it took 0.1 µg/mL (≈ 0.285 µM) to inhibit growth (MIC). Further, the Growth_index came to 1 in [3]; 25 in assay [4]; 30 in [5]; 35 in assay [6]; 35 in [7].
In the case of `Cn1c(=O)n(C)c(=O)n(CCCCCS(=O)(=O)CC(=O)NN)c1=O`, the MIC in assay [1] amounted to 0.5 µg/mL (≈ 1.38 µM). The Growth_index in [3] stood at 14; in assay [4], 50; in assay [5], 50; in assay [6] it was 50; in [7] it was 50; in assay [8], 12. Further, the Growth_index in assay [9] is 33; in [10], 50; in assay [11], above 90.
In turn, `Cn1c(=O)n(C)c(=O)n(CCC[S+]([O-])CC(=O)NN)c1=O` (stereo not drawn) came in with an MIC in assay [1] of 1 µg/mL (≈ 3.13 µM). For the same compound, the Growth_index in assay [3] is 5; in assay [4], 5; in assay [5] it was 5; in assay [6], 5; in assay [7], 55.
In turn, `Cn1c(=O)n(C)c(=O)n(CCCS(=O)(=O)CC(N)=O)c1=O` displayed an MIC in [1] of 1 µg/mL (≈ 3.12 µM). In addition, the Growth_index is reported as 20 in [3]; 29 in assay [4]; 39 in assay [5]; 39 in assay [6]; 39 in [7].
In turn, `Cn1c(=O)n(C)c(=O)n(CCC[S+]([O-])CC(N)=O)c1=O` (stereo not drawn) yielded an MIC in assay [1] of 1 µg/mL (≈ 3.29 µM). Also, the Growth_index is listed as 7 in [3], 41 in assay [4] and above 90 in assay [5].
